Columns and labels:
β-secretase (BACE1) = assay: β-secretase activity (BACE1) in LA1-5s neuroblastoma cells; type: cell-based, human; conditions: LA1-5s cells
Procedure: (§1) Relative bar values in panel a are mean±SEM of 6 determinations. Asterisks: *, P<0.05; **, P<0.01; ***, P<0.001 (ANOVA). Values in panel b are means of 2-4 determinations.
(§2) Shown here are Mean±SEM (N=4) values relative to the mean initial basal or insulin-stimulated level of indicated immunoreactive protein/peptide. Asterisks: *, P<0.05; **, P<0.01; ***, P<0.001 (ANOVA).
β-Secretase Activity (BACE1; beta-site APP-cleaving enzyme-1). β-Secretase was measured was measured using a kit from Thermo-Fisher.

Aβ1-40/42 = Aβ1-40/42 levels in LA1-5s neuroblastoma cells; type: cell-based, human; conditions: LA1-5s cells
Procedure: as §1, §2
Western Analyses. As described, Western analyses were conducted with rabbit antisera or mouse monoclonal antibodies (mMab), using: anti-aPKC (Santa Cruz Biotechnologies, Santa Cruz, CA); anti-phospho-threonine-560/555-PKC-ζ/λ/ι (Invitrogen, Carlsbad, CA); anti-p-serine-256-FoxO1 and anti-FoxO1 (Abnova, Walnut, CA); anti-Akt (mMab), anti-phospho-serine-473-Akt, anti-phospho-serine-9-GSK3P anti-GSK313, anti-phospho-serine-253-FoxO3a, anti-FoxO3a, anti-phospho-serine-256-FoxO1, anti-phospho-serine-193-FoxO4; anti-FoxO1, anti-phospho-serine-2448-mTOR, anti-mTOR, anti-β-amyloid (anti-5-10 kDa-Aβ1-40/42) and anti-amyloid precursor protein (anti-120 kDa-APP) (Cell Signaling Technologies, Danvers, MA); and anti-phospho-serine-202-tau, anti-phospho-threonine-231-tau (Gene Tex, Irvine, CA). Samples from experimental groups were compared on the same blots, and routinely checked with loading controls. Note that: insulin-sensitive 70 kDa aPKC is largely PKC-ζ in mouse brain and orthologous PKC-ι (98% aa homology) in monkey and other primate brains; brain PKC-ζ exists largely as a 50 kDa moiety that, lacking a regulatory domain, is constitutively-active and unresponsive to insulin.

[1] = passage of the blood brain barrier; type: in vivo, mouse; conditions: intact mice, inferred from inhibition of brain PKC-λ/ι
recombinant PKC-ι = biological target: T1, recombinant PKC-ι (Homo sapiens, UniProt P41743); conditions: cited from earlier work
T1 sequence (P41743 1-596): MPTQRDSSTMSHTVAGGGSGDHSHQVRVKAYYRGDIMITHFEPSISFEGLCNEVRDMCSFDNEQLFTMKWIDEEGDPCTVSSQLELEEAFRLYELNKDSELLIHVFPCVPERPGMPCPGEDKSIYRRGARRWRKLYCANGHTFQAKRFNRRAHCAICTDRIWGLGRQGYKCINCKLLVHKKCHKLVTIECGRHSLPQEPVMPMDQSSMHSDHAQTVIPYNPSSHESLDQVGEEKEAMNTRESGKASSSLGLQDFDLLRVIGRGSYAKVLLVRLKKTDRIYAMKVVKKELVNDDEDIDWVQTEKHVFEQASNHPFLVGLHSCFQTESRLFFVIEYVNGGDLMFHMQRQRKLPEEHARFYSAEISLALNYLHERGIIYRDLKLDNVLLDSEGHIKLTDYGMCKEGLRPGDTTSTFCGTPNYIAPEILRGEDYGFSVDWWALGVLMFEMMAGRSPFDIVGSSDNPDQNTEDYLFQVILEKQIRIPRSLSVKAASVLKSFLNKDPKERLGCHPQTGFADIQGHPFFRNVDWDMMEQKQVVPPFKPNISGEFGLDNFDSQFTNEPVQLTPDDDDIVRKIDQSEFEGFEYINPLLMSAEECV

[2] = system: conventional PKCs, novel PKCs, AMP-dependent protein kinase and Akt; conditions: cited from earlier work
aPKC = biological target: T2, aPKC (Homo sapiens, UniProt P41743); assay: aPKC activity in LA1-5s neuroblastoma cells; type: cell-based; set-up: endogenous in cells; host or cells: LA1-5s human neuroblastoma cells
T2 sequence (P41743 2-596): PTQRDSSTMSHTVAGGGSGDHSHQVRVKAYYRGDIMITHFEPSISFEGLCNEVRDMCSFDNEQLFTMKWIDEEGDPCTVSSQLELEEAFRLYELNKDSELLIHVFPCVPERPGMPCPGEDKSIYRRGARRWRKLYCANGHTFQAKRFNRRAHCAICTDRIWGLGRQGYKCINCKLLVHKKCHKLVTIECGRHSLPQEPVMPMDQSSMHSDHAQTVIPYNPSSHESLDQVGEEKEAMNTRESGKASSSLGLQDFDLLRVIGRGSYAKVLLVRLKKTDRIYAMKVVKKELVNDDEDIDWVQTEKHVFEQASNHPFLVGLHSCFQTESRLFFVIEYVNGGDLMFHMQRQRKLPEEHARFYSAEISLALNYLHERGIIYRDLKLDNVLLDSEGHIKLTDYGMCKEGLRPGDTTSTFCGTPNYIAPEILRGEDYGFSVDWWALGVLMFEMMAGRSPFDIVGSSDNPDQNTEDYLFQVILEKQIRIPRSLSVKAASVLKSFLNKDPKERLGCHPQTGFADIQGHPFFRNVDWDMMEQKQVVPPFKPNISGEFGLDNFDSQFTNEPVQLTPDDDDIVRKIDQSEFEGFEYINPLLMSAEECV

With `NC(=O)c1ncn([C@@H]2C[C@H](COP(=O)(O)O)[C@@H](O)[C@H]2O)c1N` [ICAPP] the “effect on metformin-induced increase in β-secretase activity” value (β-secretase (BACE1)) was “dose-dependently inhibited”, the “effect on insulin-stimulated β-secretase activity” value (β-secretase (BACE1); 200 nM insulin) was “dose-dependent decreases” and the “effect on metformin-induced increase in Aβ1-40/42” value (Aβ1-40/42) was “dose-dependently inhibited”. The “effect on insulin-stimulated Aβ1-40/42 levels” value (Aβ1-40/42; 200 nM insulin) was “dose-dependent decreases”, the “passage of the blood brain barrier (BBB)” value [1] was “can cross the BBB” and the “inhibition of recombinant PKC-ι” value (recombinant PKC-ι) was “preferentially inhibit recombinant PKC-ι”. For the same molecule, the IC50 (recombinant PKC-ι; previously seen, stated as similar, read-out: IC50, inhibition of recombinant PKC-λ/ι) was 1 to 10 nM, the “inhibition of conventional PKCs, novel PKCs, AMP-dependent protein kinase and Akt” value [2] was “Neither ICAPP [8] nor ACPD [6,7] inhibit” and the “effect on metformin-induced increase in aPKC activity” value (aPKC; LA1-5s cells) was “dose-dependently inhibited”. It also gave an IC50 (aPKC; LA1-5s human neuroblastoma cells, 200 nM insulin, read-out: IC50, inhibition of insulin-stimulated aPKC activity) of 1 to 10 nM.

From patent US11865125B2, “APKC inhibitors and methods of treating a neurodegenerative disease or disorder” (UNIVERSITY OF SOUTH FLORIDA, priority 2016, dated 2024)
